Measured values as given in publication PMC10482267, “Safety, tolerability, pharmacokinetics, and pharmacodynamics of single and multiple doses of aficamten in healthy Chinese participants: a randomized, double-blind, placebo-controlled, phase 1 study” (Frontiers in Pharmacology, 2023).
Entries after “also recorded” stand apart in the source; their conditions may differ. Like-named read-outs stand apart in the source and are kept apart here.

Key:
[1] = tested on: healthy Chinese participants; type: in vivo, human
From the text: Of note, the study was not designed to identify a maximum tolerated dose. Dose escalation was to stop if a non-tolerated dose was identified. PD endpoints, including left ventricular ejection fraction (LVEF), would be measured with echocardiograms, which were reviewed by an independent cardiologist for safety assessments. The study drug would be discontinued for participants who develop left ventricular dysfunction according to pre-specified stopping rules. For additional safety monitoring, an independent, unblinded cardiologist was present at the clinical research unit from dosing through the completion of the echocardiogram on the last dosing day.
Echocardiography assessments (left ventricular fractional shortening [LVFS], left ventricular stroke volume [LVSV], left ventricular outflow tract velocity time integral [LVOT-VTI], left ventricular end-systolic volume [LVESV], left ventricular end-diastolic volume [LVEDV], left ventricular cardiac output [LVCO], and LVEF) for the SAD cohorts were collected on day 1 (baseline) and at 1.5, 4, and 24 h post-dose on day 1. For the MD cohort, the assessments were collected on day 1 (baseline) at 1.5 and 4 h post-dose on day 1, at 1.5 h post-dose on days 2, 4, and 9, and at 3 and 24 h post-dose on day 14.
Of all the echocardiography parameters, the key parameters LVEF and LVFS were classified as follows with the number of participants summarized for each dosing condition: for the LVEF category, baseline LVEF ≥60%, and post-dose LVEF <50% or <45%; change of LVEF from baseline ≤ 5%, ≤10%, or ˂15%; for the VLFS category, change of LVFS from baseline ≤ 5%, ≤10%, or ˂15%. The dose–PD response relationship between the aficamten dose and placebo group was assessed using ANOVA analysis. […] Furthermore, the relationship between PK concentration–PD response was also assessed using ANCOVA analysis of post-dose PD parameters based on changes from baseline. The model included changes from baseline in PD parameters as the dependent variables, concentration tertiles (categorical variables) as fixed effects, baseline PD parameters as covariates, and the random intercept to account for repeated measures. In addition, the heart rate (HR), systolic blood pressure (SBP), and diastolic blood pressure (DBP) were collected as a part of the vital sign assessments at pre-dose and post-dose.

[2] = tested on: healthy Western participants; settings: 2022, cited from earlier work
CYP2D6 = tested on: CYP2D6; set-up: method as in not given; settings: in vitro; forms metabolites CK-3834282 and CK-3834283; ref not given; cited from earlier work
[3] = MD 5 mg N=9, 25.5 h (1.5 hours post-dose on Day 2)
[4] = MD 5 mg N=9, 73.5 h (1.5 hours post-dose on Day 4)
[5] = MD 5 mg N=9, 193.5 h (1.5 hours post-dose on Day 9)
[6] = MD 5 mg N=9, 315 h (3 hours post-dose on Day 14)
[7] = MD 5 mg N=9, 336 h (24 hours post-dose on Day 14)

For `CCc1nc(-c2ccc3c(c2)CC[C@H]3NC(=O)c2cnn(C)c2)no1` [aficamten], the “LVEF Change From Baseline ≤ -5, participants” value ([1]; MD 5 mg N=9, 1.5 h) was 1 (11.11%) n (%), the “LVEF Change From Baseline ≤ -10, participants” value ([1]; MD 5 mg N=9, 1.5 h) was 0 (0%) n (%) and the “LVEF Change From Baseline ≤ -15, participants” value ([1]; MD 5 mg N=9, 1.5 h) was 0 (0%) n (%). The “LVFS Change from Baseline ≤ -5, participants” value (shortened to “LVFS Change … -5, participants”) ([1]; MD 5 mg N=9, 1.5 h) was 3 (33.33%) n (%), the “LVFS Change from Baseline ≤ -10, participants” value (“LVFS Change … -10, participants” for short) ([1]; MD 5 mg N=9, 1.5 h) was 1 (11.11%) n (%) and the “LVFS Change from Baseline ≤ -15, participants” value (“LVFS Change … -15, participants” for short) ([1]; MD 5 mg N=9, 1.5 h) was 0 (0%) n (%). The “LVEF Change From Baseline ≤ -5, participants” value [1, 3] was 4 (44.44%) n (%), the “LVEF Change From Baseline ≤ -10, participants” value [1, 3] was 0 (0%) n (%) and the “LVEF Change From Baseline ≤ -15, participants” value [1, 3] was 0 (0%) n (%). For the same compound, the “LVFS Change … -5, participants” value [1, 3] was 4 (44.44%) n (%), the “LVFS Change … -10, participants” value [1, 3] was 0 (0%) n (%) and the “LVFS Change … -15, participants” value [1, 3] was 0 (0%) n (%). For the same compound, the “LVEF Change From Baseline ≤ -5, participants” value [1, 4] was 3 (33.33%) n (%), the “LVEF Change From Baseline ≤ -10, participants” value [1, 4] was 0 (0%) n (%) and the “LVEF Change From Baseline ≤ -15, participants” value [1, 4] was 0 (0%) n (%). The “LVFS Change … -5, participants” value [1, 4] was 5 (55.56%) n (%), the “LVFS Change … -10, participants” value [1, 4] was 1 (11.11%) n (%) and the “LVFS Change … -15, participants” value [1, 4] was 0 (0%) n (%). The “LVEF Change From Baseline ≤ -5, participants” value [1, 5] was 1 (11.11%) n (%), the “LVEF Change From Baseline ≤ -10, participants” value [1, 5] was 0 (0%) n (%) and the “LVEF Change From Baseline ≤ -15, participants” value [1, 5] was 0 (0%) n (%). For the same compound, the “LVFS Change … -5, participants” value [1, 5] was 4 (44.44%) n (%), the “LVFS Change … -10, participants” value [1, 5] was 0 (0%) n (%) and the “LVFS Change … -15, participants” value [1, 5] was 0 (0%) n (%). For the same compound, the “LVEF Change From Baseline ≤ -5, participants” value [1, 6] was 2 (22.22%) n (%), the “LVEF Change From Baseline ≤ -10, participants” value [1, 6] was 0 (0%) n (%) and the “LVEF Change From Baseline ≤ -15, participants” value [1, 6] was 0 (0%) n (%). The “LVFS Change … -5, participants” value [1, 6] was 1 (11.11%) n (%), the “LVFS Change … -10, participants” value [1, 6] was 0 (0%) n (%) and the “LVFS Change … -15, participants” value [1, 6] was 0 (0%) n (%). The “LVEF Change From Baseline ≤ -5, participants” value [1, 7] was 2 (22.22%) n (%), the “LVEF Change From Baseline ≤ -10, participants” value [1, 7] was 0 (0%) n (%) and the “LVEF Change From Baseline ≤ -15, participants” value [1, 7] was 0 (0%) n (%). For the same compound, the “LVFS Change … -5, participants” value [1, 7] was 1 (11.11%) n (%), the “LVFS Change … -10, participants” value [1, 7] was 0 (0%) n (%) and the “LVFS Change … -15, participants” value [1, 7] was 0 (0%) n (%). The “exposure–response analysis of change from baseline in echocardiogram parameters vs time-matched plasma concentrations” value ([1]; MD 5 mg cohort) was “did not show a statistically significant effect”, the “LVEF Change From Baseline ≤ -5, participants” value ([1]; SAD 10 mg N=6, 1.5 h) was 1 (16.67%) n (%) and the “LVEF Change From Baseline ≤ -10, participants” value ([1]; SAD 10 mg N=6, 1.5 h) was 0 (0%) n (%). For the same compound, the “LVEF Change From Baseline ≤ -15, participants” value ([1]; SAD 10 mg N=6, 1.5 h) was 0 (0%) n (%), the “LVFS Change … -5, participants” value ([1]; SAD 10 mg N=6, 1.5 h) was 1 (16.67%) n (%) and the “LVFS Change … -10, participants” value ([1]; SAD 10 mg N=6, 1.5 h) was 0 (0%) n (%). For the same compound, the “LVFS Change … -15, participants” value ([1]; SAD 10 mg N=6, 1.5 h) was 0 (0%) n (%), the “LVEF Change From Baseline ≤ -5, participants” value ([1]; SAD 10 mg N=6, 4 h) was 1 (16.67%) n (%) and the “LVEF Change From Baseline ≤ -10, participants” value ([1]; SAD 10 mg N=6, 4 h) was 0 (0%) n (%). The “LVEF Change From Baseline ≤ -15, participants” value ([1]; SAD 10 mg N=6, 4 h) was 0 (0%) n (%), the “LVFS Change … -5, participants” value ([1]; SAD 10 mg N=6, 4 h) was 0 (0%) n (%) and the “LVFS Change … -10, participants” value ([1]; SAD 10 mg N=6, 4 h) was 0 (0%) n (%). The “LVFS Change … -15, participants” value ([1]; SAD 10 mg N=6, 4 h) was 0 (0%) n (%), the “LVEF Change From Baseline ≤ -5, participants” value ([1]; SAD 10 mg N=6, 24 h) was 0 (0%) n (%) and the “LVEF Change From Baseline ≤ -10, participants” value ([1]; SAD 10 mg N=6, 24 h) was 0 (0%) n (%). For the same compound, the “LVEF Change From Baseline ≤ -15, participants” value ([1]; SAD 10 mg N=6, 24 h) was 0 (0%) n (%), the “LVFS Change … -5, participants” value ([1]; SAD 10 mg N=6, 24 h) was 1 (16.67%) n (%) and the “LVFS Change … -10, participants” value ([1]; SAD 10 mg N=6, 24 h) was 0 (0%) n (%). For the same compound, the “LVFS Change … -15, participants” value ([1]; SAD 10 mg N=6, 24 h) was 0 (0%) n (%), the “number of subjects with LVEF reduction of 5%–10%” value ([1]; SAD 10 mg-dose group, 1.5 h post-dose) was “one” and the “LVEF Change From Baseline ≤ -5, participants” value ([1]; SAD 20 mg N=6, 1.5 h) was 3 (50%) n (%). For the same compound, the “LVEF Change From Baseline ≤ -10, participants” value ([1]; SAD 20 mg N=6, 1.5 h) was 1 (16.67%) n (%), the “LVEF Change From Baseline ≤ -15, participants” value ([1]; SAD 20 mg N=6, 1.5 h) was 0 (0%) n (%) and the “LVFS Change … -5, participants” value ([1]; SAD 20 mg N=6, 1.5 h) was 3 (50%) n (%). The “LVFS Change … -10, participants” value ([1]; SAD 20 mg N=6, 1.5 h) was 1 (16.67%) n (%), the “LVFS Change … -15, participants” value ([1]; SAD 20 mg N=6, 1.5 h) was 0 (0%) n (%) and the “LVEF Change From Baseline ≤ -5, participants” value ([1]; SAD 20 mg N=6, 4 h) was 2 (33.33%) n (%). The “LVEF Change From Baseline ≤ -10, participants” value ([1]; SAD 20 mg N=6, 4 h) was 0 (0%) n (%), the “LVEF Change From Baseline ≤ -15, participants” value ([1]; SAD 20 mg N=6, 4 h) was 0 (0%) n (%) and the “LVFS Change … -5, participants” value ([1]; SAD 20 mg N=6, 4 h) was 1 (16.67%) n (%). The “LVFS Change … -10, participants” value ([1]; SAD 20 mg N=6, 4 h) was 0 (0%) n (%), the “LVFS Change … -15, participants” value ([1]; SAD 20 mg N=6, 4 h) was 0 (0%) n (%) and the “LVEF Change From Baseline ≤ -5, participants” value ([1]; SAD 20 mg N=6, 24 h) was 1 (16.67%) n (%). The “LVEF Change From Baseline ≤ -10, participants” value ([1]; SAD 20 mg N=6, 24 h) was 0 (0%) n (%), the “LVEF Change From Baseline ≤ -15, participants” value ([1]; SAD 20 mg N=6, 24 h) was 0 (0%) n (%) and the “LVFS Change … -5, participants” value ([1]; SAD 20 mg N=6, 24 h) was 2 (33.33%) n (%). The “LVFS Change … -10, participants” value ([1]; SAD 20 mg N=6, 24 h) was 0 (0%) n (%), the “LVFS Change … -15, participants” value ([1]; SAD 20 mg N=6, 24 h) was 0 (0%) n (%) and the “number of subjects with LVEF reduction of 10%–15%” value ([1]; SAD 20 mg group, 1.5 h post-dose) was “one”. For the same compound, the “number of participants with LVEF reduction of 5%–10%” value ([1]; SAD 20 mg-dose group, 1.5 h post-dose) was “three”, the “LVFS change from baseline vs placebo group by PK concentration group” value ([1]; SAD cohorts, group 2: 37.6–56.3 ng/mL, p < 0.05) was “statistically significant changes from baseline” and the “LVEF change from baseline vs placebo group by PK concentration group” value ([1]; SAD cohorts, group 3: 62.5–199.0 ng/mL, p < 0.05) was “statistically significant changes from baseline”. For the same compound, the “PK–PD relationship between plasma concentration and LVEF and LVFS” value ([1]; SAD cohorts, p < 0.05) was “significant inverse PK–PD relationships”, the “PD parameter changes from baseline, dose group vs placebo group” value ([1]; any dose group, ANOVA) was “no statistically significant difference” and the “accumulation ratio (AR_AUC0-24)” value ([2]; 5 mg QD 14 days, healthy Western participants, CY 6011, ref Robertson et al., 2019, Malik et al.) was 4.71. For the same compound, the “Cmax, mean (SD)” value ([2]; 10 mg single dose, healthy Western participants, ref Malik et al.) was 70.5 (69.0) ng/mL, the “effect of CYP2D6 poor metabolizer status on aficamten exposure” value ([2]; CYP2D6-PM cohort vs non-poor metabolizers, CY 6011, ref Malik et al.) was “comparable; also recorded: did not affect the pharmacokinetics” and the median tmax ([2]; SAD 10 mg, healthy Western participants, ref Malik et al.) was 1.8 h. The “time after which steady-state appeared evident” value ([2]; daily dosing, CY 6011, ref Robertson et al., 2019, Malik et al.) was 14 days, the safety and tolerability ([2]; healthy Western populations, FIH phase 1, ref Robertson et al., 2019, Malik et al.) was “safe and well-tolerated” and the “CYP isoform involved in metabolism” value (CYP2D6) was “CYP2D6, as the primary isoform involved in aficamten metabolism”.
